# Like-named read-outs stand apart in the source and are kept apart here.
# What was measured:
# [1] = biological target: T1, Nav1.5^Mut sodium channel (mutated human Nav1.5) (Homo sapiens, UniProt Q14524, F1486Q/K1419C); type: cell-based
# T1 construct: expressed in transfected cells; host or cells: HEK293 cells stably expressing the Cameleon (Venus/CFP) calcium biosensor; clone VC/Nav1.5 #12
# Method: VC/Nav1.5 #12 cells were incubated with different concentrations of quinidine (FIG. 6A), sertralin (FIG. 6B) or paroxetine (FIG. 6C), and a first fluorescence reading was performed, (FVenus/FCFP)0. 25 mM Ca^2+ was added to activate the channel and a second fluorescence reading was performed, (FVenus/FCFP)ca2+. […] Error bars represent the standard deviation of experiments performed in triplicate;
# The fluorescence intensity was measured using a Packard Fusion™ Universal Microplate Analyzer. 75,000 cells per well were analyzed in a bath solution containing 140 mM NaCl, 2 mM KCl, 1.5 mM CaCl2, 1 mM MgCl2, 10 mM glucose, and 10 mM Na-HEPES. For calcium measurements, the bath solution contained: 140 mM NaCl, 2 mM KCl, 25 mM CaCl2, 10 mM glucose and 10 mM Na-HEPES. The pH of the bath solutions was adjusted to pH 7.4 using 1N NaOH.
# Dose-response experiments in the presence of known sodium channel blockers (quinidine, sertralin and paroxetine) were performed.
# [2] = test system: VC #7 control Cameleon HEK293 cell line; assay: Cameleon FRET fluorescence microplate assay in control Cameleon cell line VC #7 (does not express a sodium channel); type: cell-based, human; conditions: VC #7 cell line that does not express a sodium channel; FIG. 4B
# From the text: The reporter cell lines described herein are derived from the HEK293 cell line, which, in turn, is derived from human embryonic kidney. […] To generate a Nav1.5^Mut/Cameleon reporter cell line, the first step was to establish a HEK293 cell line which expresses the Cameleon calcium biosensor alone. HEK293 cells were transfected with a vector (pIREShyg3, Clonetech, Cat. No. 631620) encoding the Cameleon construct (as described in Evanko and Haydon, Cell Calcium (2005) 37: 341-348). This cell line that express the Cameleon alone was then stably transfected with the pcDNA4neo-Nav1.5^Mut expression vector (see FIG. 7A for the sequence of Nav1.5^Mut). […] The resulting cell lines were then assessed in patch-clamp for their capacity to produce robust current amplitude.
# Cameleon is a fluorescent biosynthetic Ca^2+ indicator constructed by inserting a Ca^2+ sensor (Calmodulin and M13, a calmodulin-binding protein) between two mutated forms of green fluorescent protein (GFP): the energy acceptor Venus, a derivative of yellow fluorescent protein (YFP), and the energy donor, cyan fluorescent protein (CFP) (Evanko D S and Haydon P G, Cell calcium 2005, 37: 341-348). Cameleon fluorescence is affected by differences in the concentration of Ca^2+ that alter the amount of fluorescence resonance energy transfer (FRET) between CFP and Venus. […]
# [3] = test system: HEK293 Cameleon cell line (intracellular Ca2+); assay: Confocal microscopy FRET ratio in HEK293 cell line stably expressing the Cameleon biosensor alone; type: cell-based, human; conditions: 10 μM ionomycin, ratio versus time, FIG. 3B
# Method: FIG. 3A: Individual Venus (right panel) and CFP (left panel) fluorescence image taken with a 40× objective. FIG. 3B: Plot of FRET ratio (Venus/CFP) versus time following addition of 10 μM ionomycin;
# A HEK293 cell line stably expressing the Cameleon biosensor alone was treated with ionomycin (10 μM), a calcium ionophore, to raise the intracellular level of Ca^2+, and the FRET ratio was analysed by confocal microscopy.
structure (smiles),measurement,setting,value
C=C[C@H]1C[N@@]2CC[C@H]1C[C@@H]2[C@@H](O)c1ccnc2ccc(OC)cc12 [quinidine],"Delta FRET ratio signal, (FVenus/FCFP)Ca2+/(FVenus/FCFP)0",[1],decrease in the Delta FRET ratio signal
CN[C@H]1CC[C@@H](c2ccc(Cl)c(Cl)c2)c2ccccc21 [sertralin],"Delta FRET ratio signal, (FVenus/FCFP)Ca2+/(FVenus/FCFP)0",[1],decrease in the Delta FRET ratio signal
Fc1ccc([C@@H]2CCNC[C@H]2COc2ccc3c(c2)OCO3)cc1 [paroxetine],"Delta FRET ratio signal, (FVenus/FCFP)Ca2+/(FVenus/FCFP)0","[1]; VC/Nav1.5 #12 cells, increasing doses of blocker, 25 mM Ca2+ added to activate the channel, compared to control cells receiving buffer only, FIG. 6",decrease in the Delta FRET ratio signal
C[C@H](CCC(=O)O)C[C@H](C)C[C@H](C)C(=O)/C=C(\O)[C@H](C)C[C@H](C)C/C=C/[C@@H](C)[C@@H](O)[C@@H](C)[C@@H](O)C[C@@H]1CC[C@@](C)([C@H]2CC[C@@](C)([C@@H](C)O)O2)O1 [ionomycin],FRET response to treatment,"[1]; VC/Nav1.5 #12 and #14 cell lines, FIG. 4B",respond
same,FRET response to treatment,[2],respond only to ionomycin
same,FRET ratio (Venus/CFP),[3],increase in the Venus/CFP ratio

# Reference: US8551693B2 (priority 2008, dated 2013)
